Reference: ChEMBL document CHEMBL1153342 (J Med Chem, 2009)
One block for each compound: values may come before it.

How the values were obtained:
[1] = biological target: T1, Serine/threonine-protein kinase pim-1 (Homo sapiens, UniProt P11309); assay: Inhibition of Pim1 in presence of 1 uM ATP
[2] = biological target: T2, Serine/threonine-protein kinase pim-2 (Homo sapiens, UniProt Q9P1W9); assay: Inhibition of Pim2 in presence of 1 uM ATP
[3] = biological target: T2, Serine/threonine-protein kinase pim-2; assay: Inhibition of Pim2
[4] = Permeability from basolateral to apical side of human Caco-2 cells at 50 uM by LC/MS-MS analysis; type: ADME, cell-based; settings: read-out: permeability
[5] = Solubility at pH 2.0 after 48 hrs by HPLC; type: physicochemical; settings: buffer
[6] = Solubility at pH 7.4 after 48 hrs by HPLC; type: physicochemical; settings: buffer
[7] = Metabolic stability in human liver microsomes assessed as half life by HPLC; type: ADME, Microsome
[8] = Permeability from apical to basolateral side of human Caco-2 cells at 50 uM by LC/MS-MS analysis; type: ADME, cell-based; settings: read-out: permeability
[9] = biological target: T1, Serine/threonine-protein kinase pim-1; assay: Inhibition of Pim1 after 15 mins by scintillation counting-based competition assay in presence of 100 uM [gamma33P]ATP
[10] = biological target: Casein kinase II subunit alpha (Homo sapiens) (UniProt P68400); assay: Inhibition of CK2alpha1 at 10 uM
[11] = biological target: Casein kinase II subunit alpha' (Homo sapiens) (UniProt P19784); assay: Inhibition of CK2alpha2 at 10 uM

IC50 [1]: 33 nM
IC50 [2]: 22 nM
SMILES: NCCCCNc1cncc(-c2cccc(/C=C/C(=O)O)c2)n1

IC50 [3]: 46 nM
IC50 [1]: 50 nM
SMILES: CN1CCCN(c2cccc(-c3cccc(/C=C/C(=O)O)c3)n2)CC1

IC50 [1]: 370 nM
IC50 [2]: 480 nM
SMILES: COCCCNc1cncc(-c2cccc(/C=C/C(=O)O)c2)n1

Papp B→A at 50 µM [4]: 3.01 ×10⁻⁶ cm/s
solubility at 48 h [5]: > 2000 µg/mL
solubility at 48 h [6]: > 2000 µg/mL
half-life [7]: 2.65 h
Papp A→B at 50 µM [8]: 2.73 ×10⁻⁶ cm/s
SMILES: CN1CCCN(c2cncc(-c3cccc(/C=C/C(=O)O)c3)n2)CC1

IC50 [3]: 2200 nM
SMILES: O=C(O)/C=C/c1cccc(-c2cnccn2)c1

IC50 [3]: 17 nM
SMILES: NCC1CCN(c2cncc(-c3cccc(/C=C/C(=O)O)c3)n2)CC1

IC50 [9]: 120 nM
SMILES: O=C(O)c1ccc(-c2cnc3ccc(NCC4CC4)nn23)cc1

IC50 [3]: 10 nM
SMILES: O=C(O)/C=C/c1cccc(-c2cncc(N3CCCNCC3)n2)c1

IC50 [3]: > 8000 nM
inhibition [10]: 14%
inhibition [11]: 7%
SMILES: COC(=O)/C=C/c1cccc(-c2cncc(N3CCCN(C)CC3)n2)c1

IC50 [3]: 25 nM
SMILES: O=C(O)/C=C/c1cccc(-c2cncc(NCC3CCNCC3)n2)c1

inhibition [10]: 42%
inhibition [11]: 36%
SMILES: CN1CCCN(c2cncc(-c3cccc(/C=C/C(N)=O)c3)n2)CC1
